How the values were obtained:
Experiment in all cases: relative viability (nuclei count vs DMSO), 5 days (fraction); higher = more cells survive
[1] = compound: Cc1ccc(C(=O)Nc2cccc(C(F)(F)F)c2)cc1Nc1cncc(C(N)=O)c1 [ALW-II-49-7] + CC(=O)Nc1cccc(-n2c(=O)n(C3CC3)c(=O)c3c(Nc4ccc(I)cc4F)n(C)c(=O)c(C)c32)c1 [Trametinib] (partner 0.02 µM)
Summary of the method: (§1)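 After 5 days of treatment, lung cancer cells in 1536-well plates were fixed and stained in a single step (final 0.05% Triton X-100, 1% formaldehyde, 1 ug/ml Hoechst) and their nuclei counted on 4× images. Treatment had been applied by pin tool the day after seeding as one drug alone or as a fixed anchor-drug dose with five library-drug doses (not always all listed) in √10 steps. Relative viability is the nuclei count of treated wells divided by that of vehicle wells, and values are medians of duplicate plates.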

[2] = compound: Cc1ccc(C(=O)Nc2cccc(C(F)(F)F)c2)cc1Nc1cncc(C(N)=O)c1 [ALW-II-49-7] + O=C(CCCCCCC(=O)Nc1ccccc1)NO [Vorinostat] (partner 1 µM)
Summary of the method: as §1

[3] = compound: C1CC1C(=O)NC2=NNC3=C2C=CC(=C3)C4=CC(=CC=C4)C(=O)NC5CC5 [XMD13-2] + O=C(c1cc(Cc2n[nH]c(=O)c3ccccc23)ccc1F)N1CCN(C(=O)C2CC2)CC1 [Olaparib] (partner 8 µM)
Summary of the method: as §1

[4] = compound: C1CC1C(=O)NC2=NNC3=C2C=CC(=C3)C4=CC(=CC=C4)C(=O)NC5CC5 [XMD13-2] + Nc1nc2[nH]cc(CCc3ccc(C(=O)N[C@@H](CCC(=O)O)C(=O)O)cc3)c2c(=O)[nH]1 [Pemetrexed] (partner 0.2 µM)
Summary of the method: as §1

Row | Cell Line | relative viability ([1]; first compound 0.08 µM) | relative viability ([1]; first compound 0.253 µM) | relative viability ([1]; first compound 0.8 µM) | relative viability ([1]; first compound 2.53 µM) | relative viability ([1]; first compound 8 µM) | relative viability ([2]; first compound 0.08 µM) | relative viability ([2]; first compound 0.253 µM) | relative viability ([2]; first compound 0.8 µM) | relative viability ([2]; first compound 2.53 µM) | relative viability ([2]; first compound 8 µM) | relative viability ([3]; first compound 0.05 µM) | relative viability ([3]; first compound 0.1581 µM) | relative viability ([3]; first compound 0.5 µM) | relative viability ([3]; first compound 1.581 µM) | relative viability ([3]; first compound 5 µM) | relative viability ([4]; first compound 0.05 µM) | relative viability ([4]; first compound 0.1581 µM) | relative viability ([4]; first compound 0.5 µM) | relative viability ([4]; first compound 1.581 µM) | relative viability ([4]; first compound 5 µM)
1 | SW 1573 | 0.561 | 0.556 | 0.611 | 0.637 | 0.491 | 0.612 | 0.663 | 0.652 | 0.648 | 0.567 | 0.66 | 0.479 | 0.497 | 0.395 | 0.287 | 0.831 | 0.847 | 0.788 | 0.79 | 0.814
2 | NCI-H1993 | 0.583 | 0.481 | 0.648 | 0.608 | 0.445 | 0.843 | 0.72 | 0.837 | 0.828 | 0.796 | 1.1 | 0.924 | 0.507 | 0.813 | 0.952 | 0.62 | 0.619 | 0.613 | 0.643 | 0.555
3 | NCI-H661 | 0.529 | 0.606 | 0.521 | 0.567 | 0.53 | 0.854 | 0.859 | 0.823 | 0.795 | 0.79 | 0.728 | 0.671 | 0.739 | 0.767 | 0.66 | 0.936 | 0.927 | 0.873 | 0.916 | 0.838
4 | NCI-H520 | 0.62 | 0.661 | 0.53 | 0.552 | 0.519 | 0.782 | 0.649 | 0.681 | 0.696 | 0.617 | 0.333 | 0.325 | 0.498 | 0.36 | 0.307 | 0.704 | 0.636 | 0.665 | 0.573 | 0.442
5 | ChaGo-K-1 | 0.889 | 0.939 | 0.919 | 0.847 | 0.85 | 0.744 | 0.75 | 0.713 | 0.689 | 0.83 | 0.439 | 0.436 | 0.438 | 0.387 | 0.358 | 0.255 | 0.267 | 0.259 | 0.253 | 0.264
6 | NCI-H2085 | 0.534 | 0.512 | 0.477 | 0.562 | 0.518 | 0.787 | 0.899 | 0.718 | 0.817 | 0.702 | 0.771 | 0.695 | 0.805 | 0.728 | 0.768 | 0.959 | 0.838 | 0.977 | 0.789 | 1.03
7 | NCI-H1651 | 0.839 | 0.772 | 0.824 | 0.781 | 0.808 | 0.576 | 0.665 | 0.579 | 0.54 | 0.555 | 0.174 | 0.206 | 0.19 | 0.184 | 0.188 | 0.607 | 0.56 | 0.577 | 0.647 | 0.775
8 | RERF-LC-KJ | 0.867 | 0.923 | 0.816 | 0.749 | 0.833 | 0.646 | 0.731 | 0.653 | 0.755 | 0.646 | 0.971 | 0.917 | 0.928 | 0.983 | 0.985 | 0.478 | 0.425 | 0.476 | 0.385 | 0.463
9 | NCI-H1755 | 0.724 | 0.879 | 0.786 | 0.747 | 0.681 | 0.88 | 0.83 | 0.783 | 0.685 | 0.608 | 0.878 | 0.892 | 0.94 | 0.91 | 0.84 | 0.418 | 0.455 | 0.473 | 0.456 | 0.396
10 | SK-MES-1 | 0.573 | 0.628 | 0.562 | 0.6 | 0.447 | 1.14 | 1.16 | 1.05 | 1.04 | 0.938 | 0.906 | 0.646 | 0.804 | 0.73 | 0.761 | 1.01 | 0.894 | 0.911 | 0.909 | 0.864
11 | NCI-H2126 | 0.595 | 0.561 | 0.541 | 0.526 | 0.574 | 0.8 | 0.877 | 0.778 | 0.71 | 0.707 | 0.922 | 0.863 | 0.894 | 0.821 | 0.929 | 0.748 | 0.656 | 0.634 | 0.704 | 0.647
12 | EPLC-272H | 0.245 | 0.27 | 0.281 | 0.305 | 0.239 | 0.37 | 0.436 | 0.352 | 0.32 | 0.301 | 0.976 | 0.854 | 0.748 | 0.528 | 0.172 | 0.345 | 0.31 | 0.247 | 0.254 | 0.168
13 | NCI-H1975 | 0.384 | 0.581 | 0.288 | 0.367 | 0.311 | 0.713 | 0.686 | 0.643 | 0.66 | 0.542 | 0.89 | 0.798 | 0.828 | 0.871 | 0.792 | 0.295 | 0.286 | 0.295 | 0.316 | 0.305
14 | NCI-H1703 | – | – | – | – | – | – | – | – | – | – | 0.503 | 0.417 | 0.38 | – | 0.372 | – | – | – | – | –
15 | NCI-H1563 | – | – | – | – | – | – | – | – | – | – | – | – | – | – | – | 0.76 | 0.806 | 0.741 | 0.75 | 0.913
16 | NCI-H1792 | 0.583 | 0.436 | 0.42 | 0.369 | 0.471 | – | – | – | – | – | 0.628 | 0.385 | 0.428 | 0.383 | 0.573 | 1.16 | 0.694 | 0.922 | 0.75 | 1.14
17 | IA-LM | – | – | – | – | – | 0.998 | 0.613 | 0.745 | 0.29 | 0.423 | 0.832 | 0.903 | 0.787 | 0.707 | 0.635 | – | – | – | – | –
18 | EBC-1 | – | – | – | – | – | – | – | – | – | – | 0.768 | 0.78 | 0.837 | 0.545 | 0.277 | – | – | – | – | –
19 | NCI-H1299 | – | – | – | – | – | – | – | – | – | – | 0.953 | 0.991 | 0.959 | 0.972 | 1 | – | – | – | – | –

From the supplement of paper PMC10307832
